Experimental data taken from US7094809B2, “Method of treating subject infected with Neisseria gonorrhea” (Northeastern Ohio Universities College of Medicine, priority 2000, dated 2006).

How the values were obtained:
ICP-27 = test: Western blot of ICP-27 in HSV-1 infected Vero cells; format: cell-based; conditions: 105 μM, 24 hours
Experimental: (§1) ICP-4 and ICP-27 are immediate-early regulatory proteins of HSV-1 that are required for efficient replication of this virus. To determine whether ICP-4 or ICP-27 production is altered by treatment with a hydroxylated tolan, separate cultures of Vero cells were infected with HSV-1 at an moi of 1 and incubated in control medium or medium containing 105 μM 4,4′-dihydroxytolan for 24 hours. Infected cells were scraped from the flask, collected by centrifugation, and resuspended in cold tris-buffered saline, pelleted by centrifugation, and the cell pellet frozen at −70° C. Proteins were extracted from the thawed pellets, separated by 6–15% SDS-PAGE, and assayed on a Western blot by reacting with mouse monoclonal antibody to ICP-4 or ICP-27 from Goodwin Institute for Cancer Research Inc., FL.

HSV-1 [1] = test: Inhibition of HSV-1 replication in vitro, plaque assay (Example 9); format: cell-based
Experimental: Tissue culture cells were infected with HSV-1 and incubated in solutions containing Tolan-5, Tolan-10 and Tolan-11. The concentrations used ranged from one-half to three-quarters of the calculated CD50 for the respective tolan at 48 hours of treatment. Specifically, Vero cells were infected with HSV-1 at a multiplicity of infection of one for one hour. At the end of that time, the cultures were rinsed with media and fresh media containing various concentration of the respective tolan were added. Infected control cultures were incubated in media lacking hydroxylated tolan. At 1, 24, 48, and 72 hours after infection, samples were frozen at −70° C. until assayed for new virus production. Virus production was quantified by the plaque assay for each time point of infection. The results, which are expressed as plaque forming units per milliliter (pfu/ml).

ICP-4 = test: Western blot of ICP-4 in HSV-1 infected Vero cells; format: cell-based; conditions: 105 μM, 24 hours
Experimental: as §1

Vero cells [2] = test: Cell viability studies, uninfected Vero cells; format: cell-based, African green monkey; conditions: 105 μM, 24 hours
Experimental: Cell viability studies confirmed that treatment of uninfected Vero cells with 105 μM 4,4′-dihydroxytolan for 24 hours was not toxic.

HSV-1 [3] = test: Reversibility of inhibition of HSV replication, Vero cells, moi 1 (Example 5); format: cell-based; conditions: 105 μM
Experimental: Vero cells were grown to confluence and infected with HSV-1 at an moi of 1 and then incubated in media lacking a hydroxylated tolan (control cultures) or in media containing 105 μM 4,4′-dihydroxytolan. One set of infected cells was maintained in the dihydroxylatedtolan for a period of 72 hours. In another set of infected cells the dihydroxytolan-containing media was replaced with media lacking a hydroxylated tolan at 24 hours. In another set of cells the tolan-containing media was replaced with media lacking the hydroxylated tolan at 48 hours after infection. The number of infectious HSV particles produced by each set of infected cells was determined by plaque assay.

HSV-1 [4] = test: HSV-1 plaque assay, infected Vero cells, moi 1 (Example 3); format: cell-based
Experimental: Cultures of African green monkey kidney cells (Vero) cells, obtained from the American Type Culture Collection, Rockville, Md. were grown to confluence in Medium 199 supplemented with 5% fetal bovine serum, 0.075% NaHCO3, and 50 μg/ml gentamycin sulfate in 25 cm^2 tissue culture flasks. Cells were infected with HSV-1 at a multiplicity of infection (moi) of one and incubated at room temperature for one hour to allow for virus attachment to and penetration of the cell. Under these conditions, approximately half of the cells are infected with virus. Thereafter, the cultures were rinsed three time with media and incubated in medium containing 50 μM or 75 μM 4, 4′-dihydroxytolan prepared in 0.2% dimethyl-sulfoxide (DMSO). Controls were treated identically, but were incubated without the dihyroxylated tolan. For purposes of comparison, HSV cell were also inoculated in the presence of 52.5 μM 4,4′-dihydroxystilbene. Due to the higher cell toxicity of the stilbene, cells were not incubated in the presence of 75 μM dihydroxystilbene.
Upon addition of the medium to the cultures and at 24 hours time periods thereafter, i.e., 0 hours, 24 hours, 48 hours, and 72 hours after addition of the drug, cells and medium were frozen at −70° C. Samples were then thawed, sonicated and titrated on Vero cells to determine the number of plaque forming units (pfu's) of virus produced by each culture.

HSV-1 [5] = test: HSV-1 plaque assay, time of drug addition, Vero cells, moi 10 (Example 4); format: cell-based
Experimental: Vero cell cultures were infected with HSV-1 as described above in Example 3 except that the cells were infected with virus at an moi of 10. Under these conditions nearly all of the cells are infected with virus during the initial one hour incubation period. Following removal of unattached virus, the virally-infected cultures were incubated in control medium lacking a hydroxylated tolan or medium to which 105 μM 4,4′-dihydroxytolan had been added at 1, 3, 6, or 9 hours after removal of the unattached virus. At 24 hours after infection, the number of pfu's present in the cells and medium of untreated and hydroxylated tolan-treated cultures was determined.

Vero cells [6] = test: MTT colorimetric cell toxicity assay; format: cell-based, African green monkey
Experimental: Cell toxicity of the tolans 4,4′-dihydroxytolan (“Tolan-5”), 3,4′,5-trihydroxytolan (“Tolan-10”) and 4-hydroxy-4′-trifluoromethyltolan (“Tolan-11”) was determined using an MTT assay. In this assay, cells are exposed to MTT, 3-(4,5-dimethylthiazol-2-yl)-2,5-diphenyltetrazolium bromide, which is taken into the cells and reduced by mitochondrial dehydrogenase to a purple formazan, a large molecule which is unable to pass through intact cell membranes, and therefore accumulates in healthy cells. The ability of cells to reduce MTT is an indication of mitochondrial integrity and activity, which may be interpreted as a measure of viability. Solubilization of the cells results in the liberation of the product which can readily be detected spectrophotometrically.
Various concentrations of Tolan-5, Tolan-10 and Tolan-11 were added to 96 well tissue culture plates that had been seeded with Vero cells. The plates were then incubated at 37° C. in 5% CO2/95% air for 24, 48 and 72 hours. At the end of each time point, 50 μl of MTT (1 mg/ml) was added to the tissue culture plates which were then incubated for an additional four hours. At the end of that time, dimethyl sulfoxide (DMSO) was added to dissolve the cells and formazan, and the plates were read spectrophotometrically at 540 nm. […] Presented in Table I below are the toxicity results for Tolan-5, Tolan-10, and Tolan-11 measured at 24, 48 and 72 hours of treatment.

HSV-1 [7] = test: Direct inactivation of HSV-1 inoculum, residual pfu by plaque assay; format: cell-based; conditions: 105 μM, room temperature, 1 to 60 minutes, data not shown
Experimental: To determine whether hydroxylated tolans block formation of infectious herpes virus particles by directly inactivating the virus, a standard inoculum of HSV-1 was mixed with 105 μM 4,4′-dihydroxytolan in medium, with 0.2% DMSO in medium, or with media alone and placed at room temperature. The number of residual pfu's present at 1, 10, 30, and 60 minutes after addition of each respective solution to the virus was determined by plaque assay.

## Oc1ccc(C#Cc2ccc(O)cc2)cc1 [Tolan-5, 4,4′-dihydroxytolan]
ICP-27
  synthesis of ICP-27: significantly reduced
HSV-1 [1]; 75 μm versus 50 μm
  inhibition of virus, comparison of concentrations: more inhibitory to the virus at 75 μm that at 50 μm
HSV-1 [1]; Vero cells, moi 1, up to 72 hours
  HSV-1 production: inhibited HSV-1 production
ICP-4
  synthesis of ICP-4: significantly reduced
Vero cells [2]
  toxicity to uninfected Vero cells: not toxic
HSV-1 [3]; drug removed at 24 or 48 hours
  reversibility of inhibitory effect on HSV replication: reversible
HSV-1 [3]; prolonged period of time, mammalian cells
  cell killing on prolonged exposure: does not kill the cells
HSV-1 [4]; 50 μM
  reduction of new virus production: 95%
HSV-1 [4]; 75 μM continuously, by 72 hours
  infectious HSV particles in cultures: virtually undetectable
HSV-1 [4]; Human alphaherpesvirus 1, 75 μM, 24 hours, Vero cells, moi 1, read-out: inhibition of formation of infectious virus particles
  inhibition at 75 µM: > 99%
HSV-1 [5]; 105 μM added 6 hours after infection, pfu at 24 hours, moi 10
  inhibition of production of virus: approximately 90%
HSV-1 [5]; 105 μM added one hour after infection, pfu at 24 hours, moi 10
  reduction of production of virus: more than 99%
HSV-1 [5]; Human alphaherpesvirus 1, Vero, 105 μM added 3 hours after infection, pfu at 24 hours, moi 10, read-out: inhibition of production of virus
  inhibition at 105 µM: ~90%
HSV-1 [5]; added 9 hours after infection
  formation of infectious virus particles: not inhibited
Vero cells [6]; 48 hours
  CD50: 106 µM
Vero cells [6]; 72 hours
  CD50: 84.0 µM
HSV-1 [7]
  direct inactivation of HSV: did not directly inactivate HSV
